Data: patent US20130005733A1, “COMBINATION ANTI-CANCER THERAPY” (OSI Pharmaceuticals, LLC, priority 2010, published 2013)

Assays:
[1] = system: IGF-1R phosphorylation in H460 lung carcinoma cells; test: Phospho-RTK antibody array (Proteome Profiler); type: cell-based, Human; conditions: 3 uM, relative to DMSO
Excerpt: (§1) Measurement of phosphorylated receptor tyrosine kinases: A commercially available membrane-based antibody array (Proteome Profiler Array, R&D Systems, Minneapolis, Minn.) was used to simultaneously co-immunoprecipitate 42 different receptor tyrosine kinases (RTKs) in duplicate and measure specific phospho-epitopes on each. The phospho-epitopes were detected by chemiluminescence, quantitated based on pixel density for each pair of spots and expressed relative to vehicle-treated controls. Pixel density was determined using AlphaEaseFC software (Alpha Innotech, San Leandro, Calif.).

[2] = system: Ovcar3; test: Cell Titer Glo proliferation assay, ovarian cell line panel; type: cell-based, Human; conditions: Ovcar3, single agent, cell viability at 72 hours
Procedure: (§2) Cell lines: Human cancer cell lines were purchased from the American Type Culture Collection (ATCC). The cell lines Ovcar-3, MDAH2774, Caov3, lgrov-1, and MDA-MB-231 were grown in media as prescribed by the ATCC, containing 10% FCS. HNSCC 1483, HNSCC 1386, HNSCC 1186 were a gift from Memorial Sloan Kettering and were cultured in 1:1 DMEM: Hams F12 with 10% FCS. Ovcar-4, Ovcar-5, and Ovcar-8 were obtained from the NCI and were grown in RPMI with 10% FCS. Measurement of proliferation: Inhibition of proliferation was measured using the Cell Titer Glo Assay (Promega Corporation, Madison, WI). Cell lines were seeded at a density of 3000 cells per well in a 96-well plate. 24 hours after plating cells were dosed with varying concentrations of drug, either as a single agent or in combination. […] Inhibition of proliferation, relative to vehicle-treated controls was expressed as a fraction of 1 and graphed using PRISM® software (Graphpad Software, San Diego, Calif.). Analysis of Synergy: The Bliss additivism model was used to classify the effect of combining OSI-027 and OSI-906 as additive, synergistic or antagonistic. A theoretical curve was calculated for combined inhibition using the equation: Ebliss=EA+EB−EA*EB, where EA and EB are the fractional inhibitions obtained by drug A alone and drug B alone at specific concentrations. Here, Ebliss is the fractional inhibition that would be expected if the combination of the two drugs was exactly additive. If the experimentally measured fractional inhibition was less than Ebliss the combination was said to be synergistic. If the experimentally measured fractional inhibition was greater than Ebliss the combination was said to be antagonistic. For dose response curves, the bliss additivity was calculated for varying doses of drug A when combined with a constant dose of drug B. This allowed an assessment as to whether drug B affected the potency of drug A or shifted its intrinsic activity. All plots were generated using Graphpad Prism software.

[3] = system: Ovcar-5; test: as above; type: cell-based, Human; conditions: Ovcar-5 (KRAS mutant), single agent, cell viability at 72 hours
Procedure: as §2

[4] = system: MDAH2774; test: as above; type: cell-based, Human; conditions: MDAH2774 (KRAS mutant), single agent, cell viability at 72 hours
Procedure: as §2

[5] = system: IR phosphorylation in MDAH2774 ovarian carcinoma cells; test: Phospho-RTK antibody array (Proteome Profiler); type: cell-based, Human; conditions: MDAH2774 (KRAS mutant); 3 uM each agent; 2 hour treatment
Excerpt: as §1

[6] = system: IGF-1R phosphorylation in MDAH2774 ovarian carcinoma cells; test: Phospho-RTK antibody array (Proteome Profiler); type: cell-based, Human; conditions: MDAH2774 (KRAS mutant); 3 uM each agent; 2 hour treatment
Excerpt: as §1

[7] = system: IR phosphorylation in Ovcar-3 ovarian carcinoma cells; test: Phospho-RTK antibody array (Proteome Profiler); type: cell-based, Human; conditions: Ovcar-3 (KRAS wt); 3 uM each agent; relative to DMSO
Excerpt: as §1

[8] = system: p-4E-BP1(T37/46); test: Western blot of phospho-4E-BP1; type: cell-based, Human; conditions: 300 nM each agent; 2 hours
Procedure: (§3) Cell extracts were prepared by detergent lysis (50 mM Tris-HCl, pH 8.0, 150 mM NaCl, 1% NP-40, 0.5% sodium deoxycholate, 0.1% SDS, containing protease inhibitor (P8340, Sigma, St. Louis, Mo.) and phosphatase inhibitor (P5726, Sigma, St. Louis, Mo.) cocktails. The soluble protein concentration was determined by micro-BSA assay (Pierce, Rockford, Ill.). Pixel density was determined using AlphaEaseFC software (Alpha Innotech, San Leandro, Calif.). Protein immunodetection was performed by electrophoretic transfer of SDS-PAGE separated proteins to nitrocellulose, incubation with antibody, and chemiluminescent second step detection (PicoWest; Pierce, Rockford, Ill.). The antibodies included: 4E-BP1, p-4E-BP1(T37/46), PRAS40, and pPRAS40 ([…]). Antibodies were obtained from Cell Signaling Technology, Inc. (Danvers, Mass.). […] The media was removed, cells were washed two times with PBS, and cells were lysed as previously described.

[9] = system: pPRAS40 (T246) in MDAH2774; test: Western blot of phospho-PRAS40; type: cell-based, Human; conditions: 300 nM each agent, 2 hours
Procedure: as §3

[10] = system: Igrov1; test: Cell Titer Glo proliferation assay, ovarian cell line panel; type: cell-based, Human; conditions: Igrov1, single agent, cell viability at 72 hours
Procedure: Cell lines: Human cancer cell lines were purchased from the American Type Culture Collection (ATCC). The cell lines Ovcar-3, MDAH2774, Caov3, lgrov-1, and MDA-MB-231 were grown in media as prescribed by the ATCC, containing 10% FCS. HNSCC 1483, HNSCC 1386, HNSCC 1186 were a gift from Memorial Sloan Kettering and were cultured in 1:1 DMEM: Hams F12 with 10% FCS. Ovcar-4, Ovcar-5, and Ovcar-8 were obtained from the NCI and were grown in RPMI with 10% FCS. Measurement of proliferation: Inhibition of proliferation was measured using the Cell Titer Glo Assay (Promega Corporation, Madison, WI). Cell lines were seeded at a density of 3000 cells per well in a 96-well plate. 24 hours after plating cells were dosed with varying concentrations of drug, either as a single agent or in combination. […] Inhibition of proliferation, relative to vehicle-treated controls was expressed as a fraction of 1 and graphed using PRISM® software (Graphpad Software, San Diego, Calif.).

[11] = system: H460 NSCLC xenograft; test: Tumor growth inhibition in vivo, xenograft; conditions: single agent
Procedure: Evaluation of tumor growth inhibition in vivo: Evaluation of tumor growth inhibition in vivo was conducted at OSI facilities with the approval of the Institutional Animal Care and Use Committee (IACUC) in an American Association for Accreditation of Laboratory Animal Care (AAALAC) accredited vivarium and in accordance with the Institute of Laboratory Animal Research (Guide for the Care and Use of Laboratory Animals, NIH, Bethesda, Md., USA). For this study, female athymic nude nu/nu CD-1 mice (6-8 wks, 20-28 g, Charles River Laboratories, Wilmington, Mass., USA) were allowed to acclimate for a minimum of one week prior to initiation of the study. To evaluate tumor growth inhibition, cells were harvested from cell culture flasks during exponential cell growth, washed twice with sterile PBS, counted and resuspended in PBS to a suitable concentration before subcutaneous implantation on the right flank of nu/nu CD-1 mice. Tumors were established to 200±50 mm^3 in size before randomization into treatment groups of 8 mice each. […]
where Tt=median tumor volume of treated at time t; T0=median tumor volume of treated at time 0; Ct=median tumor volume of control at time t; and C0=median tumor volume of control at time 0. The average TGI over the dosing period was then calculated and reported. […]

[12] = system: Ovcar-5 cells; test: Caspase 3/7 Glo apoptosis assay; type: cell-based, Human; conditions: 48 hrs after treatment, OSI-027 varying doses alone or with 5 uM OSI-906
Procedure: Measurement of apoptosis: […] Cell lines were seeded at a density of 3000 cells per well in a 96-well plate. 24 hours after plating cells were dosed with varying concentrations of drug, either as a single agent or in combination. […] The caspase 3/7 activity was normalized to cell number per well, using a parallel plate treated with Cell Titer Glo (Promega Corporation, Madison, WI). Signal for each well was normalized using the following formula: Caspase 3/7 Glo luminescence units/Cell Titer Glo fraction of DMSO control. All graphs were generated using PRISM® software (Graphpad Software, San Diego, Calif.). […] A theoretical curve was calculated for combined inhibition using the equation: Ebliss=EA+EB−EA*EB, where EA and EB are the fractional inhibitions obtained by drug A alone and drug B alone at specific concentrations. […] If the experimentally measured fractional inhibition was less than Ebliss the combination was said to be synergistic. If the experimentally measured fractional inhibition was greater than Ebliss the combination was said to be antagonistic. For dose response curves, the bliss additivity was calculated for varying doses of drug A when combined with a constant dose of drug B. This allowed an assessment as to whether drug B affected the potency of drug A or shifted its intrinsic activity. […]

Compound | phosphorylation of IGF-1R [1] | sensitivity of cell line (inhibition of proliferation) [2] | sensitivity of cell line (inhibition of proliferation) [3] | sensitivity of cell line (inhibition of proliferation) [4] | phosphorylation of IR [5] | phosphorylation of IGF-1R [6] | phosphorylation of IR [7] | phosphorylation of 4E-BP1 [8] | inhibition of phosphor-PRAS40 [9] | sensitivity of cell line (inhibition of proliferation) [10] | tumor growth inhibition (TGI) ([11]; OSI-906 60 mg/kg once-daily for 14 days) [%] | tumor growth inhibition (TGI) ([11]; OSI-027 50 mg/kg oral daily for 14 days) [%] | induction of apoptosis (caspase 3/7 activity) [12]
C#Cc1cccc(Nc2ncnc3cc(OCCOC)c(OCCOC)cc23)c1 [erlotinib, reference compound] | hyperphosphorylation of IGF-1R |  |  |  |  |  |  |  |  |  |  |  | 
C[C@]1(O)C[C@@H](c2nc(-c3ccc4ccc(-c5ccccc5)nc4c3)c3c(N)nccn32)C1 [OSI-906, cis-3-[8-amino-1-(2-phenylquinolin-7-yl)-imidazo[1,5-a]pyrazin-3-yl]-1-methylcyclobutanol] |  | among the least sensitive | most sensitive | most sensitive | reduced | reduced | fully attenuates phosphor-IR, below the basal level | No significant decrease | inhibits phosphor-PRAS40 to a greater degree | among the least sensitive | 69 |  | 
Nc1nccn2c1c(-c1cc3cccc(Cl)c3[nH]1)nc2[C@H]1CC[C@H](C(=O)O)CC1 [OXA-01] | increases p-IGF-1R to a greater degree than erlotinib |  |  |  |  |  |  |  |  |  |  |  | 
COc1cccc2cc(-c3nc([C@H]4CC[C@H](C(=O)O)CC4)n4ncnc(N)c34)[nH]c12 [OSI-027, trans-4-[4-amino-5-(7-methoxy-1H-indol-2-yl)imidazo[5,1-f][1,2,4]triazin-7-yl]cyclohexanecarboxylic acid] | hyperphosphorylation of IGF-1R | most sensitive | relatively insensitive | relatively insensitive | increased | increased | hyperphosphorylated | reduced | partial inhibition | most sensitive |  | 66 | did not significantly induce apoptosis
